Source: ChEMBL document CHEMBL1149948, “Chemical and enzymatic synthesis of high-affinity selectin ligands” (Bioorg Med Chem Lett, 1997)

Legend:
P-selectin = biological target: T1, P-selectin (Homo sapiens, UniProt P16109); assay: Tested for its ability to inhibit HL60 cell adhesion to P-selectin-IgG fusion proteins; assay type: cell-based, HL-60
T1 sequence (P16109 whole entry): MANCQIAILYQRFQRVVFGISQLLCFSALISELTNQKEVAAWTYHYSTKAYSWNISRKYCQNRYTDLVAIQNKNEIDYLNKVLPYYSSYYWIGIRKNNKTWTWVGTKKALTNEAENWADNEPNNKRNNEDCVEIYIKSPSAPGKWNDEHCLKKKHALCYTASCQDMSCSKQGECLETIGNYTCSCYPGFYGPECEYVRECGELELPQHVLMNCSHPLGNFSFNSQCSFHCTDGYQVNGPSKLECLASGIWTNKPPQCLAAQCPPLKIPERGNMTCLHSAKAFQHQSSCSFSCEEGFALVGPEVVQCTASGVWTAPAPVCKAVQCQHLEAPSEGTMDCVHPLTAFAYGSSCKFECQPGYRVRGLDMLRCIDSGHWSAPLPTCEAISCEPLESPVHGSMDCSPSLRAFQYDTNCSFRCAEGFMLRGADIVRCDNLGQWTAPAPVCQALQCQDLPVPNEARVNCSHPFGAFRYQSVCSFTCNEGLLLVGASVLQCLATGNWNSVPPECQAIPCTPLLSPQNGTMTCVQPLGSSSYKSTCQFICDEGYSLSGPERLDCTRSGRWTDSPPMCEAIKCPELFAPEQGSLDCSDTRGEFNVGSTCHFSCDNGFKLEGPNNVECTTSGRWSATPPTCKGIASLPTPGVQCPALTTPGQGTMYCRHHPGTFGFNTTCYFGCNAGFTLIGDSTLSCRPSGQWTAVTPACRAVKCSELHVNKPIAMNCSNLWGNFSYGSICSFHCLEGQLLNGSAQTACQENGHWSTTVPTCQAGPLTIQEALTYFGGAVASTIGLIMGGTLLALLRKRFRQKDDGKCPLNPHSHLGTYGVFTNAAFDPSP

E-selectin = biological target: T2, E-selectin (Homo sapiens, UniProt P16581); assay: Tested for its ability to inhibit HL60 cell adhesion to Selectin E IgG fusion proteins; assay type: cell-based, HL-60
T2 sequence (P16581 whole entry): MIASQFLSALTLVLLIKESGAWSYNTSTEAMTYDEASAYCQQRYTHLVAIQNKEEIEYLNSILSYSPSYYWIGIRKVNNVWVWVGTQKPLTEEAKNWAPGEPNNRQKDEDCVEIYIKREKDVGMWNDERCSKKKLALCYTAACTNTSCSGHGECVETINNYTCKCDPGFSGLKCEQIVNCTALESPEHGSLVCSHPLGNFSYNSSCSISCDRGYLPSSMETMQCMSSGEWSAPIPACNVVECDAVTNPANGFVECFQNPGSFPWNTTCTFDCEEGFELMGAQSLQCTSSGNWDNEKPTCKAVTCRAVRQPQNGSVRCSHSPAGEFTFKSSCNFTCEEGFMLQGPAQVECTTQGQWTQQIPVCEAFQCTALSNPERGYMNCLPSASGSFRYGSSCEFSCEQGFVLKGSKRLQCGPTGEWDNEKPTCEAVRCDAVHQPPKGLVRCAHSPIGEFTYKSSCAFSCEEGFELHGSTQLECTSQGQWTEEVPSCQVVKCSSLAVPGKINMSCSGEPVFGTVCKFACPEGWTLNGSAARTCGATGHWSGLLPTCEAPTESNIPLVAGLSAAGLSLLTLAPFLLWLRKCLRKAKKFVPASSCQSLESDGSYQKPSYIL

| IC50 (P-selectin; hl-60) [µM] | IC50 (P-selectin) [µM] | IC50 (E-selectin) [µM] | SMILES |
| --- | --- | --- | --- |
| 2000 |  |  | CC(=O)N[C@@H]1[C@H](OCCCCCCN)O[C@@H](CO)[C@@H](O[C@@H]2O[C@@H](CO)[C@H](O)[C@H](O[C@]3(C(=O)O)C[C@@H](O)[C@@H](NC(C)=O)[C@H]([C@H](O)[C@H](O)CO)O3)[C@@H]2O)[C@@H]1O[C@@H]1O[C@@H](C)[C@@H](O)[C@H](O)[C@@H]1O |
|  | 700 | 700 | CC(=O)N[C@@H]1[C@H](OCCCCCCN)O[C@@H](CO)[C@@H](O[C@@H]2O[C@@H](CO)[C@H](O)[C@H](O[C@]3(C(=O)O)C[C@@H](O)C[C@H]([C@H](O)[C@H](O)CO)O3)[C@@H]2O)[C@@H]1O[C@@H]1O[C@@H](C)[C@@H](O)[C@H](O)[C@@H]1O |
|  | 160 | 270 | C[C@@H]1O[C@@H](O[C@@H]2[C@H](N)[C@H](OCCCCCCN)O[C@@H](CO)[C@H]2O[C@@H]2O[C@@H](CO)[C@H](O)[C@H](O[C@]3(C(=O)O)C[C@@H](O)[C@@H](N)[C@H]([C@H](O)[C@H](O)CO)O3)[C@@H]2O)[C@@H](O)[C@@H](O)[C@@H]1O |
|  | 1000 | 900 | CC(=O)N[C@@H]1[C@H](OCCCCCCN)O[C@@H](CO)[C@@H](O[C@@H]2O[C@@H](CO)[C@H](O)[C@H](O[C@]3(C(=O)O)C[C@@H](O)[C@@H](N)[C@H]([C@H](O)[C@H](O)CO)O3)[C@@H]2O)[C@@H]1O[C@@H]1O[C@@H](C)[C@@H](O)[C@H](O)[C@@H]1O |
